Assay results taken from US12636287B2, “Organic compounds” (INTRA-CELLULAR THERAPIES, INC., priority 2018, dated 2026).

Columns and labels:
bovine retina PDE6 = biological target: T1, bovine retina PDE6 (Bos taurus, UniProt P11541+P23439); assay: Inhibitory constant against PDEs; assay type: biochemical
T1 construct: bovine retina PDE6; from tissue; host or cells: bovine retina
T1 sequence (P11541 2-856 limits assumed): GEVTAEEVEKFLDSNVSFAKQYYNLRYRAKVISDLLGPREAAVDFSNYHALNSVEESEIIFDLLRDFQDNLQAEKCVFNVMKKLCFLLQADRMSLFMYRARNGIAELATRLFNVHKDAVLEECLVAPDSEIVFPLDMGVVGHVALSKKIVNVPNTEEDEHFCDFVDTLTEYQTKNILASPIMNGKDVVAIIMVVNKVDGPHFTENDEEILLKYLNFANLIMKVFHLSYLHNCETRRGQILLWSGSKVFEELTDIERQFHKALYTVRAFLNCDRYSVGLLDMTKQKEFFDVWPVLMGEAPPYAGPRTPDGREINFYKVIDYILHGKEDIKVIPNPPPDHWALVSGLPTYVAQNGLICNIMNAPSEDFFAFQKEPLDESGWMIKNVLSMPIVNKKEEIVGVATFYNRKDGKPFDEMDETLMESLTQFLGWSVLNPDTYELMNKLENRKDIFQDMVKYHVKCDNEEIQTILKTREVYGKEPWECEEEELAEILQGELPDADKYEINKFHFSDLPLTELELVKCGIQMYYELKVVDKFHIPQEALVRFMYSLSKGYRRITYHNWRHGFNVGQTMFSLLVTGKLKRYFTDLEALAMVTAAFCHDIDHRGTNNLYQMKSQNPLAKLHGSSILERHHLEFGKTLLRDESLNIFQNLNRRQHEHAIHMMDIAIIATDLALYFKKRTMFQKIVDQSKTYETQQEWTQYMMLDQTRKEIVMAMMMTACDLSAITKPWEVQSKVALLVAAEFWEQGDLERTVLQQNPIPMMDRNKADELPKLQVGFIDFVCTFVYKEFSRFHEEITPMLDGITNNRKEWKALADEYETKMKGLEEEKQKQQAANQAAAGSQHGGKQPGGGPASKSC
T1 sequence (P23439 2-850 limits assumed): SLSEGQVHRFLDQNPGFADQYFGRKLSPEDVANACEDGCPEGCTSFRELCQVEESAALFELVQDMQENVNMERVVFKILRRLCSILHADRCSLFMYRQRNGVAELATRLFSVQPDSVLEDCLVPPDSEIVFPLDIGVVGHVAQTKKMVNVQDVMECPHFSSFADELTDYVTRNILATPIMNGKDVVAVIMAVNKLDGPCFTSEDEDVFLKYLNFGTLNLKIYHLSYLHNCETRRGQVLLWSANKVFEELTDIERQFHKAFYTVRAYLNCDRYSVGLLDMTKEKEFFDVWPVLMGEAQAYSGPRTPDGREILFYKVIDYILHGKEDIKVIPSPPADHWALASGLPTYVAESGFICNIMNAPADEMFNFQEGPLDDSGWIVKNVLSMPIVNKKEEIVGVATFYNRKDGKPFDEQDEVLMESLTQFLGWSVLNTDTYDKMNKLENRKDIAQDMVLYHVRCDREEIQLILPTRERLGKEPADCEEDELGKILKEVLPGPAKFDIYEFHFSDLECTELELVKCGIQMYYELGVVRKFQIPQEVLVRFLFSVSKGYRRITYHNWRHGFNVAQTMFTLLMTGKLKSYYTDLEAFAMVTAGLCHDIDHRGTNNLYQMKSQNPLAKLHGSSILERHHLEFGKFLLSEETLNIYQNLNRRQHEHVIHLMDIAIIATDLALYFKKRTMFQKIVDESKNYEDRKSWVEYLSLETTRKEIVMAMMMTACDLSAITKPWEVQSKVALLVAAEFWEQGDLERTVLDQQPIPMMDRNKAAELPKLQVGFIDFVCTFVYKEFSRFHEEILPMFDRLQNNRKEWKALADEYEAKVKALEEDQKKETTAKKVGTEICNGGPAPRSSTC

PDE1 (bovine brain) = biological target: T2, PDE1 (bovine brain); assay type: biochemical
T2 construct: Ki; other: PDE1 (bovine brain)

IN2045 GBM cell line = assay: Sensitivity of GBM cell line to Compounds 1 and 2 (ID50); assay type: cell-based; conditions: Homo sapiens
IN1951 GBM cell line = assay: as above; assay type: cell-based; conditions: Homo sapiens
U251MG GBM cell line = assay: as above; assay type: cell-based; conditions: Homo sapiens, U-251
IN1528 GBM cell line = assay: as above; assay type: cell-based; conditions: Homo sapiens
UWLV304 GBM cell line = assay: as above; assay type: cell-based; conditions: Homo sapiens
GBM cells = assay: Proliferation and survival of GBM cells over 8 days; assay type: cell-based, human; conditions: for change in GBM cell population by day 8 / rate of proliferation in comparison with untreated samples: 10 μM and 20 μM; for change in GBM cell population by day 8: UWLV301, UWLV304, IN1951, U251MG and IN2045; for rate of proliferation in comparison with untreated samples: recorded daily for 8 days, all cell lines; for slowing or eliminating the proliferation of the GBM cell lines: summary statement
Experimental: Further studies were carried out to test the effect of Compounds 1 and 2 on proliferation and survival of the GBM cells. […] Results on the change in cell population were observed and recorded daily for 8 days.

IN859 GBM cell line = assay: Sensitivity of GBM cell line to Compounds 1 and 2 (ID50); assay type: cell-based; conditions: Homo sapiens
UWLV301 GBM cell line = assay: as above; assay type: cell-based; conditions: Homo sapiens

CN1C(=O)c2c(nn(Cc3ccc(-c4cccc(F)n4)cc3)c2Nc2ccccc2)N2C1=N[C@@H]1CCC[C@@H]12 [Compound 1]
Ki (bovine retina PDE6): 0.32 µM | Ki (PDE1 (bovine brain)): 0.058 nM | IC50 (IN2045 GBM cell line): 18.4 µM | IC50 (IN1951 GBM cell line): 2.04 µM | IC50 (U251MG GBM cell line): 17.8 µM | IC50 (IN1528 GBM cell line): 26.5 µM | IC50 (UWLV304 GBM cell line): 6.4 µM | change in GBM cell population by day 8 (GBM cells): overall decrease | rate of proliferation in comparison with untreated samples (GBM cells): proliferated at a slower rate | slowing or eliminating the proliferation of the GBM cell lines (GBM cells): highly effective | IC50 (IN859 GBM cell line): 34.9 µM | IC50 (UWLV301 GBM cell line): 5.4 µM

CC(=O)c1ccc(Cn2nc3c(c2Nc2ccc(F)cc2)C(=O)N(C)C2=NC(C)(C)CN23)cc1 [Compound 2]
IC50 (IN2045 GBM cell line): 12 µM | IC50 (IN1951 GBM cell line): 1.03 µM | IC50 (U251MG GBM cell line): 32 µM | IC50 (IN1528 GBM cell line): 9.45 µM | IC50 (UWLV304 GBM cell line): 2.87 µM | change in GBM cell population by day 8 (GBM cells): overall decrease | rate of proliferation in comparison with untreated samples (GBM cells): proliferated at a slower rate | slowing or eliminating the proliferation of the GBM cell lines (GBM cells): highly effective | IC50 (IN859 GBM cell line): 9.77 µM | IC50 (UWLV301 GBM cell line): 4.73 µM
